Measured values: US11051515B2, “3-acyl-benzamides and their use as herbicides” (Bayer Aktiengesellschaft, priority 2017, dated 2021)

Key:
ALOMY = experiment: Pre-emergence action against ALOMY; format: in vivo, Alopecurus myosuroides; conditions: dosage 320 g/ha, pre-emergence, scored visually after 3 weeks vs untreated controls, 100% = plants have died, 0% = like control plants; for pest or weed control at 320 g/ha: Alopecurus myosuroides, 504 h, read-out: Pre-emergence action against ALOMY (herbicidal activity in percent)
Method in brief: (§1)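 Seeds sown in sandy loam in wood-fiber pots and covered with soil. Greenhouse growth; visual damage scored after 3 weeks versus untreated controls (100% = dead, 0% = like control).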

AVEFA = experiment: Pre-emergence action against AVEFA; format: in vivo, Avena fatua; conditions: dosage 320 g/ha, scored visually after 3 weeks vs untreated controls; for pest or weed control at 320 g/ha: Avena fatua, 504 h, read-out: Pre-emergence action against AVEFA (herbicidal activity)
Method in brief: as §1

CYPES [1] = experiment: Pre-emergence action against CYPES; format: in vivo, Cyperus esculentus; conditions: pre-emergence, dosage 320 g/ha, scored visually after 3 weeks vs untreated controls; for pest or weed control at 320 g/ha: Cyperus esculentus, 504 h, read-out: Pre-emergence action against CYPES (herbicidal activity)
Method in brief: as §1

ECHCG [2] = experiment: Pre-emergence action against ECHCG; format: in vivo, Echinochloa crus-galli; conditions: pre-emergence, dosage 320 g/ha, scored visually after 3 weeks vs untreated controls; for pest or weed control at 320 g/ha: Echinochloa crus-galli, 504 h, read-out: Pre-emergence action against ECHCG (herbicidal activity)
Method in brief: as §1

LOLMU = experiment: Pre-emergence action against LOLMU; format: in vivo, Lolium multiflorum; conditions: dosage 320 g/ha, scored visually after 3 weeks vs untreated controls; for pest or weed control at 320 g/ha: Lolium multiflorum, 504 h, read-out: Pre-emergence action against LOLMU (herbicidal activity)
From the text: Seeds of monocotyledonous and dicotyledonous weed plants and crop plants are laid out in sandy loam soil in wood-fiber pots and covered with soil. The compounds of the invention, formulated in the form of wettable powders (WP) or as emulsion concentrates (EC), are then applied to the surface of the covering soil in the form of an aqueous suspension or emulsion at a water application rate equating to […], with addition of 0.2% wetting agent. After the treatment, the pots are placed in a greenhouse and kept under good growth conditions for the trial plants. The damage to the test plants is scored visually after a test period of 3 weeks by comparison with untreated controls (herbicidal activity in percent (%): 100% activity=the plants have died, 0% activity=like control plants).

SETVI [3] = experiment: Pre-emergence action against SETVI; format: in vivo, Setaria viridis; conditions: pre-emergence, dosage 320 g/ha, scored visually after 3 weeks vs untreated controls; for pest or weed control at 320 g/ha: Setaria viridis, 504 h, read-out: SETVI (Table B8, pre-emergence herbicidal activity)
Method in brief: as §1

ABUTH [4] = experiment: Pre-emergence action against ABUTH; format: in vivo, Abutilon theophrasti; conditions: pre-emergence, dosage 320 g/ha, scored visually after 3 weeks vs untreated controls; for pest or weed control at 320 g/ha: Abutilon theophrasti, 504 h, read-out: Pre-emergence action against ABUTH (herbicidal activity)
Method in brief: as §1

AMARE [5] = experiment: Pre-emergence action against AMARE; format: in vivo, Amaranthus retroflexus; conditions: pre-emergence, dosage 320 g/ha, scored visually after 3 weeks vs untreated controls; for pest or weed control at 320 g/ha: Amaranthus retroflexus, 504 h, read-out: Pre-emergence action against AMARE (herbicidal activity)
Method in brief: as §1

MATIN [6] = experiment: Pre-emergence action against MATIN; format: in vivo, Matricaria inodora; conditions: Dosage 320 g/ha, pre-emergence; for pest or weed control at 320 g/ha: Tripleurospermum inodorum, 504 h
Method in brief: as §1

POLCO [7] = experiment: Pre-emergence action against POLCO; format: in vivo, Polygonum convolvulus; conditions: Dosage 320 g/ha, pre-emergence; for pest or weed control at 320 g/ha: Fallopia convolvulus, 504 h
Method in brief: as §1

STEME [8] = experiment: Pre-emergence action against STEME; format: in vivo, Stellaria media; conditions: Dosage 320 g/ha, pre-emergence; for pest or weed control at 320 g/ha: Stellaria media, 504 h
Method in brief: as §1

VIOTR [9] = experiment: Pre-emergence action against VIOTR; format: in vivo, Viola tricolor; conditions: Dosage 320 g/ha, pre-emergence; for pest or weed control at 320 g/ha: Viola tricolor, 504 h
Method in brief: as §1

VERPE [10] = experiment: Pre-emergence action against VERPE; format: in vivo, Veronica persica; conditions: Dosage 320 g/ha, pre-emergence; for pest or weed control at 320 g/ha: Veronica persica, 504 h
Method in brief: as §1

CYPES [11] = experiment: Post-emergence action against CYPES; format: in vivo, Cyperus esculentus; conditions: post-emergence, dosage 80 g/ha, visual assessment about 3 weeks after treatment vs untreated controls; for pest or weed control at 80 g/ha: Cyperus esculentus, 504 h, read-out: Post-emergence action against CYPES (herbicidal action in percent)
Method in brief: (§2)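 Post-emergence foliar spray on greenhouse plants at the one-leaf stage, using wettable-powder or emulsion-concentrate formulations in water (600 to […], plus 0.2% wetting agent). Damage scored by eye roughly 3 weeks later against untreated plants: 0% = like control, 100% = dead.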

ECHCG [12] = experiment: Post-emergence action against ECHCG; format: in vivo, Echinochloa crus-galli; conditions: post-emergence, dosage 80 g/ha, visual assessment about 3 weeks after treatment vs untreated controls; for pest or weed control at 80 g/ha: Echinochloa crus-galli, 504 h, read-out: Post-emergence action against ECHCG (herbicidal action in percent)
Method in brief: as §2

SETVI [13] = experiment: Post-emergence action against SETVI; format: in vivo, Setaria viridis; conditions: post-emergence, dosage 80 g/ha, visual assessment about 3 weeks after treatment vs untreated controls; for pest or weed control at 80 g/ha: Setaria viridis, 504 h, read-out: Post-emergence action against SETVI (herbicidal action in percent)
Method in brief: as §2

ABUTH [14] = experiment: Post-emergence action against ABUTH; format: in vivo, Abutilon theophrasti; conditions: post-emergence, dosage 80 g/ha, visual assessment about 3 weeks after treatment vs untreated controls; for pest or weed control at 80 g/ha: Abutilon theophrasti, 504 h, read-out: Post-emergence action against ABUTH (herbicidal action in percent)
Method in brief: as §2

AMARE [15] = experiment: Post-emergence action against AMARE; format: in vivo, Amaranthus retroflexus; conditions: Amaranthus retroflexus, 504 h; post-emergence, dosage 80 g/ha, visual assessment about 3 weeks after treatment vs untreated controls; read-out: Post-emergence action against AMARE (herbicidal action in percent)
Method in brief: as §2

MATIN [16] = experiment: Post-emergence action against MATIN; format: in vivo, Matricaria inodora; conditions: post-emergence, dosage 80 g/ha, visual assessment about 3 weeks after treatment vs untreated controls; for pest or weed control at 80 g/ha: Tripleurospermum inodorum, 504 h, read-out: Post-emergence action against MATIN (herbicidal action in percent)
Method in brief: as §2

PHBPU [17] = experiment: Post-emergence action against PHBPU; format: in vivo, Pharbitis purpurea; conditions: post-emergence, dosage 80 g/ha; for pest or weed control at 80 g/ha: Ipomoea purpurea, 504 h
Method in brief: as §2

POLCO [18] = experiment: Post-emergence action against POLCO; format: in vivo, Polygonum convolvulus; conditions: post-emergence, dosage 80 g/ha; for pest or weed control at 80 g/ha: Fallopia convolvulus, 504 h
Method in brief: as §2

STEME [19] = experiment: Post-emergence action against STEME; format: in vivo, Stellaria media; conditions: post-emergence, dosage 80 g/ha; for pest or weed control at 80 g/ha: Stellaria media, 504 h
Method in brief: as §2

VIOTR [20] = experiment: Post-emergence action against VIOTR; format: in vivo, Viola tricolor; conditions: post-emergence, dosage 80 g/ha; for pest or weed control at 80 g/ha: Viola tricolor, 504 h
Method in brief: as §2

VERPE [21] = experiment: Post-emergence action against VERPE; format: in vivo, Veronica persica; conditions: Veronica persica, 504 h, dosage 80 g/ha
Method in brief: as §2

PHBPU [22] = experiment: Pre-emergence action against PHBPU; format: in vivo, Pharbitis purpurea; conditions: Dosage 320 g/ha, pre-emergence
Method in brief: as §1

`COc1c(C(=O)Nc2nnnn2C)ccc(C(F)(F)F)c1C(C)=O` [1-48] showed a pest or weed control at 320 g/ha (ALOMY) of 90%, a pest or weed control at 320 g/ha (AVEFA) of 90% and a pest or weed control at 320 g/ha (CYPES [1]) of 90%. For the same compound, the pest or weed control at 320 g/ha (ECHCG [2]) was 100%, the pest or weed control at 320 g/ha (LOLMU) was 80% and the pest or weed control at 320 g/ha (SETVI [3]) was 100%. It also gave a pest or weed control at 320 g/ha (ABUTH [4]) of 100%, a pest or weed control at 320 g/ha (AMARE [5]) of 100% and a pest or weed control at 320 g/ha (MATIN [6]) of 100%. It also gave a pest or weed control at 320 g/ha (POLCO [7]) of 90%, a pest or weed control at 320 g/ha (STEME [8]) of 90% and a pest or weed control at 320 g/ha (VIOTR [9]) of 100%. The pest or weed control at 320 g/ha (VERPE [10]) was 100%, the pest or weed control at 80 g/ha (CYPES [11]) was 100% and the pest or weed control at 80 g/ha (ECHCG [12]) was 90%. For the same compound, the pest or weed control at 80 g/ha (SETVI [13]) was 80%, the pest or weed control at 80 g/ha (ABUTH [14]) was 100% and the pest or weed control at 80 g/ha (AMARE [15]) was 100%. For the same compound, the pest or weed control at 80 g/ha (MATIN [16]) was 100%, the pest or weed control at 80 g/ha (PHBPU [17]) was 90% and the pest or weed control at 80 g/ha (POLCO [18]) was 90%. It also gave a pest or weed control at 80 g/ha (STEME [19]) of 100%, a pest or weed control at 80 g/ha (VIOTR [20]) of 100% and a pest or weed control at 80 g/ha (VERPE [21]) of 80%.
For `CCn1nnnc1NC(=O)c1ccc(C(F)(F)F)c(C(C)=O)c1Br` [2-195], the “Pre-emergence action against ALOMY (herbicidal activity in percent)” value (ALOMY) was 90%, the “Pre-emergence action against AVEFA (herbicidal activity)” value (AVEFA) was 90% and the “Pre-emergence action against CYPES (herbicidal activity)” value (CYPES [1]) was 100%. The “Pre-emergence action against ECHCG (herbicidal activity)” value (ECHCG [2]) was 100%, the “Pre-emergence action against LOLMU (herbicidal activity)” value (LOLMU) was 80% and the “SETVI (Table B8, pre-emergence herbicidal activity)” value (SETVI [3]) was 100%. The “Pre-emergence action against ABUTH (herbicidal activity)” value (ABUTH [4]) was 100%, the “Pre-emergence action against AMARE (herbicidal activity)” value (AMARE [5]) was 100% and the “Pre-emergence action against MATIN” value (MATIN [6]) was 100%. For the same compound, the “Pre-emergence action against PHBPU” value (PHBPU [22]) was 80%, the “Pre-emergence action against POLCO” value (POLCO [7]) was 90% and the “Pre-emergence action against STEME” value (STEME [8]) was 100%. For the same compound, the “Pre-emergence action against VIOTR” value (VIOTR [9]) was 100%, the “Pre-emergence action against VERPE” value (VERPE [10]) was 100% and the “Post-emergence action against CYPES (herbicidal action in percent)” value (CYPES [11]) was 90%. The “Post-emergence action against ECHCG (herbicidal action in percent)” value (ECHCG [12]) was 90%, the “Post-emergence action against SETVI (herbicidal action in percent)” value (SETVI [13]) was 90% and the “Post-emergence action against ABUTH (herbicidal action in percent)” value (ABUTH [14]) was 80%. For the same compound, the “Post-emergence action against MATIN (herbicidal action in percent)” value (MATIN [16]) was 90%, the “Post-emergence action against PHBPU” value (PHBPU [17]) was 90 and the “Post-emergence action against POLCO” value (POLCO [18]) was 90. For the same compound, the “Post-emergence action against STEME” value (STEME [19]) was 90 and the “Post-emergence action against VIOTR” value (VIOTR [20]) was 100.
For `CCn1nnnc1NC(=O)c1ccc(C(F)(F)F)c(C(C)=O)c1Cl` [2-137, 3-acetyl-2-chloro-N-(1-ethyl-1H-tetrazol-5-yl)-4-(trifluoromethyl)benzamide], the pest or weed control at 320 g/ha (ALOMY) was 90%, the pest or weed control at 320 g/ha (AVEFA) was 90% and the pest or weed control at 320 g/ha (CYPES [1]) was 100%. The pest or weed control at 320 g/ha (ECHCG [2]) was 100%, the pest or weed control at 320 g/ha (LOLMU) was 80% and the pest or weed control at 320 g/ha (SETVI [3]) was 100%. For the same compound, the pest or weed control at 320 g/ha (ABUTH [4]) was 100%, the pest or weed control at 320 g/ha (AMARE [5]) was 100% and the pest or weed control at 320 g/ha (MATIN [6]) was 100%. It also gave a pest or weed control at 320 g/ha (POLCO [7]) of 90%, a pest or weed control at 320 g/ha (STEME [8]) of 90% and a pest or weed control at 320 g/ha (VIOTR [9]) of 100%. The pest or weed control at 320 g/ha (VERPE [10]) was 90%, the pest or weed control at 80 g/ha (CYPES [11]) was 90% and the pest or weed control at 80 g/ha (ECHCG [12]) was 90%. It also gave a pest or weed control at 80 g/ha (SETVI [13]) of 100%, a pest or weed control at 80 g/ha (ABUTH [14]) of 90% and a pest or weed control at 80 g/ha (AMARE [15]) of 100%. The pest or weed control at 80 g/ha (MATIN [16]) was 100%, the pest or weed control at 80 g/ha (PHBPU [17]) was 90% and the pest or weed control at 80 g/ha (POLCO [18]) was 90%. The pest or weed control at 80 g/ha (STEME [19]) was 100%, the pest or weed control at 80 g/ha (VIOTR [20]) was 100% and the pest or weed control at 80 g/ha (VERPE [21]) was 90%.
